No end group written: not given here.
Experiments:
NPFFR2 (WT) = target: T1, NPFFR2 (WT) (Homo sapiens, UniProt Q9Y5X5); test: GloSensor cAMP accumulation assay, WT NPFFR2 (Gi signaling); format: cell-based; conditions: WT NPFFR2 (reference, 100 %WT), three independent experiments in triplicates
T1 construct: expressed in transfected cells; host or cells: HEK293T (described for NPFFR1 only)

NPFFR2 T220A = target: T2, NPFFR2 T220A (Homo sapiens, UniProt Q9Y5X5, T322A); test: GloSensor cAMP accumulation assay, NPFFR2 T220A; format: cell-based; conditions: Gi signaling, three independent experiments in triplicates
T2 construct: expressed in transfected cells; host or cells: HEK293T (described for NPFFR1 only)

NPFFR1 / NPFFR2 = conditions: NPFFR1 vs NPFFR2; ref Quillet et al., 2016; cited from earlier work
Excerpt: NPFFR1 primarily couples to inhibitory Gi/o proteins and regulates di ...

T2 sequence (Q9Y5X5 103-522 T322A): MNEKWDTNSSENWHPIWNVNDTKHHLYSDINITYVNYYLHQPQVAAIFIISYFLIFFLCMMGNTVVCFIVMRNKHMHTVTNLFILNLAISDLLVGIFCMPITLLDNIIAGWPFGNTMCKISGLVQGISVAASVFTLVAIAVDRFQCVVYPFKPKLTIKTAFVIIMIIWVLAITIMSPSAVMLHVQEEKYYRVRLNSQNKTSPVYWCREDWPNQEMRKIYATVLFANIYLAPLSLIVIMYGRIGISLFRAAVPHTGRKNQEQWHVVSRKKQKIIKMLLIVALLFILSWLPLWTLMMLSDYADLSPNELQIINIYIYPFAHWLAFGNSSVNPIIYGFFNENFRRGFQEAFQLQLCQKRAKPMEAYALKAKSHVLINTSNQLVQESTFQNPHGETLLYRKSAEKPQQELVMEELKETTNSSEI
T1 sequence (Q9Y5X5 103-522): as the sequence (Q9Y5X5 103-522 T322A) above, with A220T counted along it

Compound	Emax (NPFFR2 (WT))	EC50 (NPFFR2 T220A)	receptor preference (NPFFR1 / NPFFR2)
CC(C)C[C@H](NC(=O)[C@H](CC(N)=O)NC(=O)[C@@H]1CCCN1C(=O)[C@@H](N)C(C)C)C(=O)N1CCC[C@H]1C(=O)N[C@@H](CCC(N)=O)C(=O)N[C@@H](CCCNC(=N)N)C(=O)N[C@@H](Cc1ccccc1)C(N)=O [RFRP-3, RF-amide related peptide-3]	100%	> 30.2 µM	–
Neuropeptide AF (AGEGLNSQFWSLAAPQRF; ends and bridges not checked; UniProt O15130 93-110, looked up) [NPAF, peptide derived from pro-NPFFA]	–	–	prefer binding to NPFFR2
